Data published in ChEMBL document CHEMBL4368932 (Bioorg Med Chem, 2019).
Blank lines part the entries; values can stand above or below the compound they belong to. Calls of active or inactive are those of the source. The calls are words filed in the database; no cut-off is given here.

Tests used:
[1] = target: T1, Phosphatidylinositol 4,5-bisphosphate 3-kinase catalytic subunit delta isoform (Homo sapiens, UniProt O00329); assay: Inhibition of recombinant human PI3Kdelta using PIP2 as substrate after 35 to 40 mins by HTRF assay
T1 sequence (O00329 whole entry): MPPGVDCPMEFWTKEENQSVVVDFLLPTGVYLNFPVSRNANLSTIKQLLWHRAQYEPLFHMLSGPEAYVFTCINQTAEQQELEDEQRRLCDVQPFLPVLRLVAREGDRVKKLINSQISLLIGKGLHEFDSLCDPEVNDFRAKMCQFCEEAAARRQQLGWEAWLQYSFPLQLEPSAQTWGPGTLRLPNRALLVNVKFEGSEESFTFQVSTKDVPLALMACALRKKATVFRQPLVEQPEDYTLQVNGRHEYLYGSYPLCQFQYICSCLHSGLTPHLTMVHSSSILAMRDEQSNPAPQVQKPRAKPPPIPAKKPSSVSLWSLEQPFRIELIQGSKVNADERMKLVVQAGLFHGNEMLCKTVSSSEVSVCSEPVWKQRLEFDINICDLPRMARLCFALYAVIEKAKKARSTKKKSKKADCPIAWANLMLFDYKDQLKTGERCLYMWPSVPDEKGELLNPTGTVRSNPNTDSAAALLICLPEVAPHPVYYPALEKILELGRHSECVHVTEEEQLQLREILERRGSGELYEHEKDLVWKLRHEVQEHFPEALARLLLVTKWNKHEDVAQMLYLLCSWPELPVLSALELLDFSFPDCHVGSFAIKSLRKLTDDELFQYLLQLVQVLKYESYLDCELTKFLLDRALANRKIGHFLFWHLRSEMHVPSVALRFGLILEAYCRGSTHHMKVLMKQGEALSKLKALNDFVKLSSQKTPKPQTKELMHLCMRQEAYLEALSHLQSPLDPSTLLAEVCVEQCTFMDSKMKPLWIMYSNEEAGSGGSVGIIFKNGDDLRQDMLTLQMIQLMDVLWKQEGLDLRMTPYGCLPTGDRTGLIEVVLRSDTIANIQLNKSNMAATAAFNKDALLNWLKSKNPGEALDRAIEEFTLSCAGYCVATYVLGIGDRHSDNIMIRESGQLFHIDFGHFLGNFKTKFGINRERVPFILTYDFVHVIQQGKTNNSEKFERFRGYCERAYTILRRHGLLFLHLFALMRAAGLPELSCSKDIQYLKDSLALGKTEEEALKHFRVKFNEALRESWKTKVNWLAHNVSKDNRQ

[2] = target: Phosphatidylinositol 4,5-bisphosphate 3-kinase catalytic subunit alpha isoform (Homo sapiens, UniProt P42336); assay: Inhibition of human PI3Kalpha using phosphatidyl inositol as substrate after 3 hrs by Kinase-Glo Plus reagent-based luminescence assay
[3] = target: Phosphatidylinositol 4,5-bisphosphate 3-kinase catalytic subunit beta isoform (Homo sapiens, UniProt P42338); assay: Inhibition of recombinant human PI3Kbeta using PIP2 as substrate after 35 to 40 mins by HTRF assay
[4] = target: Phosphatidylinositol 4,5-bisphosphate 3-kinase catalytic subunit gamma isoform (Homo sapiens, UniProt P48736); assay: Inhibition of recombinant human PI3Kgamma using PIP2 as substrate after 35 to 40 mins by HTRF assay
[5] = tested on: B-cell; assay: Antiproliferative activity against anti-IgM antibody-stimulated BALB/c mouse B cells after 2 days by Alamar Blue reagent-based assay; conditions: 48 h
[6] = Intrinsic clearance in CD1 mouse liver microsomes at 0.2 uM up to 45 mins in presence of NADPH by LC-MS/MS analysis; format: ADME, Microsome; conditions: read-out: CLH
[7] = Aqueous solubility of compound at pH 6.8 Japanese Pharmacopoeia 2nd fluid for disintegration test at 130 uM after 20 hrs by liquid chromatography method; format: physicochemical
[8] = Permeability of the compound at 50 uM after 2 hrs by PAMPA; format: ADME; conditions: read-out: permeability
[9] = target: T2, Cytochrome P450 1A2 (Homo sapiens, UniProt P05177); assay: Inhibition of CYP1A2 in human liver microsomes at 5 uM using phenacetin as substrate after 20 mins by LC-MS/MS analysis; format: ADME
T2 sequence (P05177 whole entry): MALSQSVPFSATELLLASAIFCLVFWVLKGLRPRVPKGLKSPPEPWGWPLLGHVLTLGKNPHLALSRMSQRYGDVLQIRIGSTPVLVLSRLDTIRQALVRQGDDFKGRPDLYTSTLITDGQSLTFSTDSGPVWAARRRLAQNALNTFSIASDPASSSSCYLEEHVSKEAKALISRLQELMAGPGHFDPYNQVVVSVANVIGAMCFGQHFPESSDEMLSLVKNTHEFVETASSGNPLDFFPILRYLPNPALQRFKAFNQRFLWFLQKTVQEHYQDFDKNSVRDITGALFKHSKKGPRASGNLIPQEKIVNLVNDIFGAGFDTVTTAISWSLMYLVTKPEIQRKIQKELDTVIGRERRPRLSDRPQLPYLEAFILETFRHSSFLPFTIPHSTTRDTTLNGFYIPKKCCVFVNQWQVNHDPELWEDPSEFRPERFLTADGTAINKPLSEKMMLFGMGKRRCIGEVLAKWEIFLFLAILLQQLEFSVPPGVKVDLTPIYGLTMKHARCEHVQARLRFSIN

[10] = target: T3, Cytochrome P450 2C8 (Homo sapiens, UniProt P10632); assay: Inhibition of CYP2C8 in human liver microsomes at 5 uM using amodiaquine as substrate after 20 mins by LC-MS/MS analysis; format: ADME
T3 sequence (P10632 whole entry): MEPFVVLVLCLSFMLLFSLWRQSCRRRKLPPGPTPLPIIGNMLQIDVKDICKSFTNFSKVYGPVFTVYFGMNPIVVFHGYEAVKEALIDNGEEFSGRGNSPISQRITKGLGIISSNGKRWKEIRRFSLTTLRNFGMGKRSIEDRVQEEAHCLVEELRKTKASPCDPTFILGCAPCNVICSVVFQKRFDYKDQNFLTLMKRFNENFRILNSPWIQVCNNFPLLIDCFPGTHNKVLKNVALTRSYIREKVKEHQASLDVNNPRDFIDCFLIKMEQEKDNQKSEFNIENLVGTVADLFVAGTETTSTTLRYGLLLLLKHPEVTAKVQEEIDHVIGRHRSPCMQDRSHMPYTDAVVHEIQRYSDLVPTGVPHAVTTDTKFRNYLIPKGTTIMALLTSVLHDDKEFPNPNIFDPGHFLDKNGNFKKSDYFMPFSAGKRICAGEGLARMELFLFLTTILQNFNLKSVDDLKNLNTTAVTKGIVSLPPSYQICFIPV

[11] = target: Cytochrome P450 2C9 (Homo sapiens, UniProt P11712); assay: Inhibition of CYP2C9 in human liver microsomes at 5 uM using diclofenac as substrate after 20 mins by LC-MS/MS analysis; format: ADME
[12] = target: Cytochrome P450 2C19 (Homo sapiens, UniProt P33261); assay: Inhibition of CYP2C19 in human liver microsomes at 5 uM using S-mephenytoin as substrate after 20 mins by LC-MS/MS analysis; format: ADME
[13] = target: Cytochrome P450 2D6 (Homo sapiens, UniProt P10635); assay: Inhibition of CYP2D6 in human liver microsomes at 5 uM using dextromethorphan as substrate after 20 mins by LC-MS/MS analysis; format: ADME
[14] = target: Cytochrome P450 3A4 (Homo sapiens, UniProt P08684); assay: Inhibition of CYP3A4 in human liver microsomes at 5 uM using midazolam as substrate after 20 mins by LC-MS/MS analysis; format: ADME
[15] = Total clearance in BALB/c mouse at 1 mg/kg, iv or 3 mg/kg, po by LC-MS/MS analysis; format: ADME, organism-based; conditions: in vivo
[16] = Volume of distribution at steady state in BALB/c mouse at 1 mg/kg, iv or 3 mg/kg, po by LC-MS/MS analysis; format: ADME, organism-based; conditions: in vivo, read-out: Vdss
[17] = Half life in BALB/c mouse at 1 mg/kg, iv or 3 mg/kg, po by LC-MS/MS analysis; format: ADME, organism-based; conditions: in vivo
[18] = Cmax in BALB/c mouse at 1 mg/kg, iv or 3 mg/kg, po by LC-MS/MS analysis; format: ADME, organism-based; conditions: in vivo
[19] = Tmax in BALB/c mouse at 1 mg/kg, iv or 3 mg/kg, po by LC-MS/MS analysis; format: ADME, organism-based; conditions: in vivo
[20] = AUC (24 hrs) in BALB/c mouse at 3 mg/kg, po by LC-MS/MS analysis; format: ADME, organism-based; parameters: dose 3 mg/kg, time < 24 hr, route oral; conditions: in vivo
[21] = Unbound fraction in mouse plasma at 2 uM incubated for 6 hrs by LC-MS/MS analysis; format: ADME, cell-free
[22] = Oral bioavailability in BALB/c mouse at 3 mg/kg by LC-MS/MS analysis; format: ADME, organism-based; conditions: in vivo
[23] = tested on: Mus musculus; assay: Inhibition of TNP-Ficoll induced antibody production in po dosed BALB/c mouse administered twice daily measured on day 4 by ELISA; format: functional, organism-based
[24] = tested on: Mus musculus; assay: Inhibition of TNP-Ficoll induced antibody production in BALB/c mouse at 2 mg/kg, po qd measured on day 4 by ELISA; format: functional, organism-based
[25] = Inhibition of PI3K in rat Rat-1 cells assessed as decrease in AKT 1/2 phosphorylation at ser473 residues after 1 hr by AlphaScreen assay; format: cell-based

Sequence of Phosphatidylinositol 4,5-bisphosphate 3-kinase catalytic subunit alpha isoform (P42336 whole entry, canonical isoform): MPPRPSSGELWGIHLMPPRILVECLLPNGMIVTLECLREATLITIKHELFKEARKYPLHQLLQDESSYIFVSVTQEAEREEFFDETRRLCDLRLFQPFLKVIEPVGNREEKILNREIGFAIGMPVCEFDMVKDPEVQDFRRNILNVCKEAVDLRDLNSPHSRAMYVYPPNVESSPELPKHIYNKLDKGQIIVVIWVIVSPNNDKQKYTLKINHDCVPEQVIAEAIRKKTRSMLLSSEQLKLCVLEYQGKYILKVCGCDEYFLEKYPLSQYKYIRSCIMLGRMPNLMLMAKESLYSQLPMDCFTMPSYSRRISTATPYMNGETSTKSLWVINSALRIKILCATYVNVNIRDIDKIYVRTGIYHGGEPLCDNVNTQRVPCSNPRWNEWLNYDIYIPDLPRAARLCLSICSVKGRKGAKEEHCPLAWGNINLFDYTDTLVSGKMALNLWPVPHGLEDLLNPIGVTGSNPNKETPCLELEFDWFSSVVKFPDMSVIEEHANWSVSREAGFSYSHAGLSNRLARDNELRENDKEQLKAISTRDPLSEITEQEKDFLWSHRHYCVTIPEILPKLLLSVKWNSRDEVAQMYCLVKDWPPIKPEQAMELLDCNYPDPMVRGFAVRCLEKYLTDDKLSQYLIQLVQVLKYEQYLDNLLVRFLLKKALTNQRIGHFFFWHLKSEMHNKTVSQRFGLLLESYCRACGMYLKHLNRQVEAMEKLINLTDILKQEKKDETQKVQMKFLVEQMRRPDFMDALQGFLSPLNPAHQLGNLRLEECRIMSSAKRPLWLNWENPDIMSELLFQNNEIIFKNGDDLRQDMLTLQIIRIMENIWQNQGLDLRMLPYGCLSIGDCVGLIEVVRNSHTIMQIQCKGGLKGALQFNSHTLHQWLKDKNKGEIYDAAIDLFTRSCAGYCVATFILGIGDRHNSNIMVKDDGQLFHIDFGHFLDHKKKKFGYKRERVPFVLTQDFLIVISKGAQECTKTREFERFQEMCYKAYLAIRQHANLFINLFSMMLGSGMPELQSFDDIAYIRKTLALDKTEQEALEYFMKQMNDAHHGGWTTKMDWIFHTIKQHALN
Sequence of Phosphatidylinositol 4,5-bisphosphate 3-kinase catalytic subunit beta isoform (P42338 whole entry, canonical isoform): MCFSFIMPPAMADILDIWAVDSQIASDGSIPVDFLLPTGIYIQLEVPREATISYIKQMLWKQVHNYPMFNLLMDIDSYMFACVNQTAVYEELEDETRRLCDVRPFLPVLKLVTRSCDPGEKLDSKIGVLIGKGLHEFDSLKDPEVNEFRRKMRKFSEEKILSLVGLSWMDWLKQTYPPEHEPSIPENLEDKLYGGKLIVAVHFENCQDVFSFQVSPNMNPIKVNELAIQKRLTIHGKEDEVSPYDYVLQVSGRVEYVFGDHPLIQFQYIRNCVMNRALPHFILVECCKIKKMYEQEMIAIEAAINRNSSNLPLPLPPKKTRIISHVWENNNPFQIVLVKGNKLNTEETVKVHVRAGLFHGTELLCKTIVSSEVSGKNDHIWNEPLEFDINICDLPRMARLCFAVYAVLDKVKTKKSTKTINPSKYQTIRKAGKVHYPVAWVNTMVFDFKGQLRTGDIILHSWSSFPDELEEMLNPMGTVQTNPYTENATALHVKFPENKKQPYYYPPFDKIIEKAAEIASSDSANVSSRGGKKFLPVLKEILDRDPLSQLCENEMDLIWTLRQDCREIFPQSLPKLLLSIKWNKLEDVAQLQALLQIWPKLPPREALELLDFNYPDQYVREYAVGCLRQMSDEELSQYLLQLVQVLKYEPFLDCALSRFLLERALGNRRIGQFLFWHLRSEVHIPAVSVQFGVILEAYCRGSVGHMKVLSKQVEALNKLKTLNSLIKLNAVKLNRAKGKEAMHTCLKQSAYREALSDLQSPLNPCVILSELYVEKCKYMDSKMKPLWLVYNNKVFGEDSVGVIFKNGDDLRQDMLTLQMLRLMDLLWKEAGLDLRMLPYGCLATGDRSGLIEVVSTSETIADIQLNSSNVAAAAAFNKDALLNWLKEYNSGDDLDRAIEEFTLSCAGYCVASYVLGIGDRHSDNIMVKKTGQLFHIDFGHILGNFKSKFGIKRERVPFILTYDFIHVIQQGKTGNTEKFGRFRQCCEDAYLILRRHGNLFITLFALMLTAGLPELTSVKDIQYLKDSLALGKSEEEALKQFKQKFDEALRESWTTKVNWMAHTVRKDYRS
Sequence of Phosphatidylinositol 4,5-bisphosphate 3-kinase catalytic subunit gamma isoform (P48736 whole entry, canonical isoform): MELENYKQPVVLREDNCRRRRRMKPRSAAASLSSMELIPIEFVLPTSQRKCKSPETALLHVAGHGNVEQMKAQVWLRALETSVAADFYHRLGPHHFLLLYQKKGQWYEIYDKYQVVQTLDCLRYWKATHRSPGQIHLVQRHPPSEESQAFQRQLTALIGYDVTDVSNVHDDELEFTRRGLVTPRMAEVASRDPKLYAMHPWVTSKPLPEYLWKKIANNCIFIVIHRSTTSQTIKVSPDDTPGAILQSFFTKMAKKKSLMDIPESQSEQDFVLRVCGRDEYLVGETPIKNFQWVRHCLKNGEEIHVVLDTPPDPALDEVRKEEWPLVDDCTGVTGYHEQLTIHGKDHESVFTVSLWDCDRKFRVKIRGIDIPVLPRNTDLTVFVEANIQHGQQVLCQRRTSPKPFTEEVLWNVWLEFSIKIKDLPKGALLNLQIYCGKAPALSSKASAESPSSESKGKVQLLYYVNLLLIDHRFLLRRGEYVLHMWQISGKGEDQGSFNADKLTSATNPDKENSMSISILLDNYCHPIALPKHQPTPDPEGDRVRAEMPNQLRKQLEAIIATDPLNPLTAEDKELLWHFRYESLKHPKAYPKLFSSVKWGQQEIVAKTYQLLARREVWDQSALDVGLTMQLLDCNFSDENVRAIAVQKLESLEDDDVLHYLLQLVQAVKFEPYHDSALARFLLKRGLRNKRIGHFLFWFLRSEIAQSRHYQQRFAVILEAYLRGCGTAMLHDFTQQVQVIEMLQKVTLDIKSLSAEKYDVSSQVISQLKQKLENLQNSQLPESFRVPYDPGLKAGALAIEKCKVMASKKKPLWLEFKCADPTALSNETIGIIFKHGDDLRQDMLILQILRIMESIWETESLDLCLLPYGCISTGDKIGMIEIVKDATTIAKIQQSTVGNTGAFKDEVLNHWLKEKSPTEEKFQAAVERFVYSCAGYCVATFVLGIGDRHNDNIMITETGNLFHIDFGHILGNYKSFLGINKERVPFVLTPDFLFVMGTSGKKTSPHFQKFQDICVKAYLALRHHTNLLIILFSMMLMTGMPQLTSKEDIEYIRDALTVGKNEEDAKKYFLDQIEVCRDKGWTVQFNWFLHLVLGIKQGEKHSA
Sequence of Cytochrome P450 2C19 (P33261 whole entry): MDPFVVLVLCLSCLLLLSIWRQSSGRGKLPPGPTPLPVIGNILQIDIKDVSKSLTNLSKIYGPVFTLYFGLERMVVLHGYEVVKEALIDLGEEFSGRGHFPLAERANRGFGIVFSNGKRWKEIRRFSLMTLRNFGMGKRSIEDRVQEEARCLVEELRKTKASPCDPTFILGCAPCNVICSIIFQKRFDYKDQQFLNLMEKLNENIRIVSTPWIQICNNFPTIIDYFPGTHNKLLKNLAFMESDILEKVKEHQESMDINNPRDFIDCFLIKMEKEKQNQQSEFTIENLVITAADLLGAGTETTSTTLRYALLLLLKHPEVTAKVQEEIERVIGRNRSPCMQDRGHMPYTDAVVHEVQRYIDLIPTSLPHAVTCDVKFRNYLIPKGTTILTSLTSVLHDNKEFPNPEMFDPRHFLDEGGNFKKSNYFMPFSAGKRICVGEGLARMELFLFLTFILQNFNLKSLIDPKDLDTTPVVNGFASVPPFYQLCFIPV
Sequence of Cytochrome P450 2C9 (P11712 whole entry): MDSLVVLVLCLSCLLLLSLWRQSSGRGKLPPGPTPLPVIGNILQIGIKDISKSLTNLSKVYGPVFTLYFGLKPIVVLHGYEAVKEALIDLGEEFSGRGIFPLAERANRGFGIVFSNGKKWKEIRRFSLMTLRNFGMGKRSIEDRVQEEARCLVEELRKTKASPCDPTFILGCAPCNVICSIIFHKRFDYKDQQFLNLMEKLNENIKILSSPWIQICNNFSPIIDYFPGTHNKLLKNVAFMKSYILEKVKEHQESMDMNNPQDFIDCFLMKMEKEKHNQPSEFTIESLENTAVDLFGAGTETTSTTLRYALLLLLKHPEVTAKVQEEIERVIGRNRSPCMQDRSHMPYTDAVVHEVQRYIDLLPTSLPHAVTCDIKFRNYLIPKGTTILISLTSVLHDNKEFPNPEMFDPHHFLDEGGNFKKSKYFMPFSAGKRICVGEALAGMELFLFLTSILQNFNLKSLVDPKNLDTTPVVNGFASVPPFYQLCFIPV
Sequence of Cytochrome P450 3A4 (P08684 whole entry): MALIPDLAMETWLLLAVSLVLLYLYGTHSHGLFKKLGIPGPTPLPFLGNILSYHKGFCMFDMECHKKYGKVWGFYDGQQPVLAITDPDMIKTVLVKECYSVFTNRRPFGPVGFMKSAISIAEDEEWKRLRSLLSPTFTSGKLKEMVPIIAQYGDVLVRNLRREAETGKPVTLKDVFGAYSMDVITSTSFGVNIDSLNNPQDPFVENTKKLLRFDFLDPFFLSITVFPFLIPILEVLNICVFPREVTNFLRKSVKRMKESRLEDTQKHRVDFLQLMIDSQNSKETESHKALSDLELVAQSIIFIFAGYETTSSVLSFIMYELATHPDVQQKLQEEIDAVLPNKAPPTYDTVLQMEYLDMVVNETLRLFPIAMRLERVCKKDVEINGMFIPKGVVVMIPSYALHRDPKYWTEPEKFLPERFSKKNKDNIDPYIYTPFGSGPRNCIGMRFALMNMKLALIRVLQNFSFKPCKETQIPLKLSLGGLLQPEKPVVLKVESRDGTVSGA

- IC50 [1]: 28 nM
- IC50 [2]: 7500 nM
- IC50 [3]: 8900 nM
SMILES: COc1ncc(N2CCc3ncnc(-c4ccnc(NCC5CCOCC5)c4)c3C2)cc1C
- IC50 [5]: 17 nM

- IC50 [1]: 27 nM
- IC50 [2]: 7300 nM
SMILES: COc1ncc(N2CCc3ncnc(-c4ccnc(N[C@H]5CC[C@H](O)CC5)c4)c3C2)cc1C
- IC50 [5]: 24 nM

- IC50 [1]: 87 nM
SMILES: COc1ncc(N2CCc3ncnc(-c4ccnc(NCc5ccccc5)c4)c3C2)cc1C

- IC50 [1]: 11 nM
- IC50 [2]: 5800 nM
- IC50 [3]: 5400 nM
- IC50 [4]: > 10000 nM
SMILES: COc1ncc(N2CCc3ncnc(-c4ccnc(NC5CCOCC5)c4)c3C2)cc1C
- IC50 [5]: 7.1 nM

Further lines, the compound ahead of its results:

SMILES: COc1ncc(N2CCc3ncnc(-c4ccnc(NC5CCN(C)CC5)c4)c3C2)cc1C
- IC50 [1]: 7 nM
- IC50 [2]: > 10000 nM
- IC50 [3]: > 10000 nM
- IC50 [4]: > 10000 nM
- IC50 [5]: 3.2 nM
- CLint scaled at 0.2 µM [6]: 81 mL/min/kg
- solubility at 20 h, 130 µM [7]: > 100 µM
- Papp at 2 h, 50 µM [8]: 9.3 ×10⁻⁶ cm/s
- inhibition (INH) [9]: Not Active
- inhibition (INH) [10]: Not Active
- inhibition (INH) [11]: Not Active
- inhibition (INH) [12]: Not Active
- inhibition (INH) [13]: Not Active
- inhibition (INH) [14]: Not Active
- clearance [15]: 21.9 mL/min/kg
- Vd [16]: 7.17 L/kg
- half-life [17]: 4 h
- Cmax [18]: 160 ng/mL
- Tmax [19]: 6 h
- AUC at 24 h [20]: 2210 ng·h/mL
- fraction unbound at 6 h, 2 µM [21]: 0.3
- bioavailability [22]: 97%
- inhibition [23]: Dose-dependent effect
- inhibition [24]: Active

SMILES: COc1ncc(N2CCc3ncnc(Nc4cccc(C)c4)c3C2)cc1C
- IC50 [1]: 220 nM

SMILES: COc1ncc(N2CCc3ncnc(-c4ccc(NCC5CCOCC5)nc4)c3C2)cc1C
- IC50 [1]: 42 nM
- IC50 [2]: 6100 nM

SMILES: COc1ncc(N2CCc3ncnc(-c4ccnc(OC5CCN(C)CC5)c4)c3C2)cc1C
- IC50 [1]: 45 nM

SMILES: COc1ncc(N2CCc3ncnc(O[C@H]4CCN(C(=O)C5CCOCC5)C4)c3C2)cc1C
- IC50 [25]: 153 nM
- IC50 [5]: 24 nM
- half-life [17]: 0.67 h

SMILES: COc1ncc(N2CCc3ncnc(-c4ccnc(NC5CCN(S(C)(=O)=O)CC5)c4)c3C2)cc1C
- IC50 [1]: 9.6 nM
- IC50 [2]: 1400 nM
- IC50 [5]: 12 nM
- CLint scaled at 0.2 µM [6]: > 1000 mL/min/kg

SMILES: COc1ncc(N2CCc3ncnc(-c4ccc(NC5CCOCC5)nc4)c3C2)cc1C
- IC50 [1]: 150 nM
